# Bridge positions count the residues as written; N and C are the ends. Square brackets hold non-standard residues; d marks the D form. Ends that are not written are not given here. Peptide text beside a SMILES is read from it. I, II: the chains in the order shown.
# Target: T1, VLA-4 integrin (Homo sapiens, UniProt P05556+P13612)
# T1 construct: endogenous in cells; host or cells: Jurkat cells
# Assay: Adhesion of Jurkat cells to peptide-BSA conjugates
# Type: cell-based
# Conditions: peptide conjugated to carrier protein, coated on plastic at 3 μg/mL; FIG. 1
# Method: The peptide used in this example was synthesized based on the sequence of the anti-α4 integrin antibody 21/6 (CGGEGYYGNYGVYA, SEQ ID No. 1). In this example the peptide was conjugated to a large carrier protein via the linker region that was synthesized as part of the peptide itself (in italics). The conjugated peptide was then coated onto plastic, and the ability of the conjugate to support cell adhesion was tested. This method is based on a report by Wayner and Kovach^40.
# As a positive control, the fibronectin peptide described by Wayner was synthesized, conjugated to carrier protein, and tested for cell adhesion in parallel with SEQ ID NO. 1 (CGGEILDVPST, SEQ ID No. 2). Both peptide conjugates were exposed to the plastic at a concentration of 3 μg/mL. […] Adhesion was not affected by an antibody against β2 integrin (IOT18), a distinct cell adhesion molecule that is also expressed on the surface of Jurkat cells. Thus, like peptide SEQ ID NO. 2, peptide SEQ ID NO. 1 interacts with Jurkat in an α4 integrin-specific fashion.
# T1 sequence (P13612 34-1032): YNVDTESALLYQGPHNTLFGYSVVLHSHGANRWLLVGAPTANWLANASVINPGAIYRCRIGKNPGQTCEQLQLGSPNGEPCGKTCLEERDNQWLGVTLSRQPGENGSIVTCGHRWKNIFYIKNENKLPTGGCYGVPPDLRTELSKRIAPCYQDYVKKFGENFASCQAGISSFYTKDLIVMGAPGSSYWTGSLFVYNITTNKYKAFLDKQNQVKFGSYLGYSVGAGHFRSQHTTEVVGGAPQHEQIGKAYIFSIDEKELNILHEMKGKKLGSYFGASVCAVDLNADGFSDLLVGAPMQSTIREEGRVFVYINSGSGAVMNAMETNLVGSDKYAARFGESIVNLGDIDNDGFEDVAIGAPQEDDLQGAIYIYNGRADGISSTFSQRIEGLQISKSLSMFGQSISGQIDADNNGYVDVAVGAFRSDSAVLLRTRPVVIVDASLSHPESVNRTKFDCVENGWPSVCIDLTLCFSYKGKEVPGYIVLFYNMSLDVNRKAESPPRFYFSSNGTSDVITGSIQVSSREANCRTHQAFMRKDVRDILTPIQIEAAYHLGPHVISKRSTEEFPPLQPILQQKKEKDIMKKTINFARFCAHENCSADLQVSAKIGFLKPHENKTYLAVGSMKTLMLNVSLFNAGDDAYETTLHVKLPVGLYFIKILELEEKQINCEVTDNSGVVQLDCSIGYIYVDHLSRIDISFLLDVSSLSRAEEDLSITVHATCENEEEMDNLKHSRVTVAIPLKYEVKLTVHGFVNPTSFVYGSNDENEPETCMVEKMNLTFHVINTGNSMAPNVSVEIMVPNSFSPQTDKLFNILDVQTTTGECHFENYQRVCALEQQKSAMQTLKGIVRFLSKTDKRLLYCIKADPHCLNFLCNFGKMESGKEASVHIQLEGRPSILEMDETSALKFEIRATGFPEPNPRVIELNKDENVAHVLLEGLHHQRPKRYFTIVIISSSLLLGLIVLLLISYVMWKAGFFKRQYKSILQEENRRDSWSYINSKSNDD
# T1 sequence (P05556 21-798): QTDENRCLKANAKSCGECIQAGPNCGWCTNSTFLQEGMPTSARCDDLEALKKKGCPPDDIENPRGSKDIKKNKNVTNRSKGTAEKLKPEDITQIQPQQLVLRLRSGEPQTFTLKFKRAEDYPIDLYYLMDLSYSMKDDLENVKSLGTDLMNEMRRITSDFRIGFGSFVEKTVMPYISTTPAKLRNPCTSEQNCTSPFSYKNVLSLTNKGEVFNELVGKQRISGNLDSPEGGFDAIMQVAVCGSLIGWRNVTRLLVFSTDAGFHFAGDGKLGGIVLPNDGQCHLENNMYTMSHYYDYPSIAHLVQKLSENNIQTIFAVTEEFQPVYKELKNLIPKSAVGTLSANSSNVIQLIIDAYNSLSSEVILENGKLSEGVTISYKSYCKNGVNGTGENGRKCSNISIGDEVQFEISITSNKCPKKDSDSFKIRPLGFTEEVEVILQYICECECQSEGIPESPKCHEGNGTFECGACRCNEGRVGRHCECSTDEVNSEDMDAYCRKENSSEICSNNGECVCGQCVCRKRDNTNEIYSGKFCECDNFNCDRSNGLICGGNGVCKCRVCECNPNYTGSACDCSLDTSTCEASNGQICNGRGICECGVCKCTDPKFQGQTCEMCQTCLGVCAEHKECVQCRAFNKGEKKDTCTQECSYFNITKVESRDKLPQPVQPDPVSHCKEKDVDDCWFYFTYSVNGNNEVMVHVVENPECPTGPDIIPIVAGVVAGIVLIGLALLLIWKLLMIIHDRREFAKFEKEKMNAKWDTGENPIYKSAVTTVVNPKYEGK
row,adhesion of Jurkat cells to immobilized peptide conjugate,Compound
1,bound equally well,"CGGEILDVPST [SEQ ID No. 2, fibronectin peptide described by Wayner, positive control, conjugated to carrier protein, reference compound]"
2,bound equally well,"CGGEGYYGNYGVYA [SEQ ID No. 1, peptide from anti-α4 integrin antibody 21/6 with CGG linker, conjugated to carrier protein]"

# Target: T2, VLA-4 integrin interaction with VCAM-1 (Homo sapiens, UniProt P05556+P13612)
# T2 construct: endogenous in cells; host or cells: Jurkat cells (VLA-4)
# T2 sequence (P13612 34-1032): as the sequence (P13612 34-1032) above
# T2 sequence (P05556 21-798): as the sequence (P05556 21-798) above
# Assay: Jurkat interaction with soluble VCAM-1 (sVCAM-1-IgG), FACS assay
# Type: cell-based
# Conditions: not given
# Text: VCAM-1 was expressed as a soluble fusion protein. The construct expressed the seven extracellular domains of VCAM-1 on the N-terminus, and the human IgG1 heavy chain constant region on the C-terminus. Interaction of the soluble construct with Jurkat cells was monitored by standard FACS analysis, using a fluorescently labeled antibody directed against the construct's human IgG tail as a marker.
# The activity of VLA-4 can be regulated. 15/7 is a monoclonal antibody that recognizes an activated conformation of VLA-4 and locks the molecule in the active state, thereby enhancing VLA-4-mediated cell adhesion.
# Peptides of different length, and with various amino acid substitutions were synthesized based on the sequence of the CDR3 region of the antibody 21/6 (EGYYGNYGVYA) (SEQ ID No. 4). The peptides were then tested for their ability to inhibit Jurkat interaction with sVCAM-1-IgG in the FACS assay described in Example 6. IC50 values were determined for each peptide using this assay.
row,Compound,IC50
1,"C[C@@H]1NC(=O)CNC(=O)[C@H](Cc2ccc(O)cc2)NC(=O)[C@H](Cc2ccc(O)cc2)NC(=O)CSC[C@@H](C(=O)O)NC1=O [SEQ ID No. 54, [Ac]YYGAC] ({CH2CO}-YYGAC-OH; thioether N-5)",≤ 50 µM
2,"NC(=O)C[C@@H]1NC(=O)[C@H](CCC(=O)O)NC(=O)[C@H](Cc2ccc(O)cc2)NC(=O)[C@H](Cc2ccc(O)cc2)NC(=O)CSC[C@@H](C(=O)O)NC1=O [SEQ ID No. 60, [Ac]YYENC] ({CH2CO}-YYENC-OH; thioether N-5)",≤ 50 µM
3,"AYFGPC [SEQ ID No. 142, AYFGPC]",≤ 50 µM
4,"NC(=O)C[C@H](NC(=O)[C@H](CCC(=O)O)NC(=O)[C@H](Cc1ccc(O)cc1)NC(=O)[C@H](Cc1ccc(O)cc1)NC(=O)[C@@H](N)CO)C(=O)N[C@@H](CSSC[C@H](NC(=O)[C@H](CC(N)=O)NC(=O)[C@H](CCC(=O)O)NC(=O)[C@H](Cc1ccc(O)cc1)NC(=O)[C@H](Cc1ccc(O)cc1)NC(=O)[C@@H](N)CO)C(=O)O)C(=O)O [SEQ ID No. 125, SYYENC SYYENC] (I: H-SYYENC-OH / II: H-SYYENC-OH; disulfide I:6-II:6)",≤ 50 µM
5,"NC(=O)C[C@@H]1NC(=O)CNC(=O)[C@H](Cc2ccccc2)NC(=O)[C@@H](N)CSSC[C@@H](C(=O)O)NC(=O)[C@H](CO)NC(=O)[C@H](Cc2c[nH]cn2)NC(=O)[C@H](CCC(=O)O)NC1=O [SEQ ID No. 32, CFGNEHSC] (H-CFGNEHSC-OH; disulfide 1-8)",≤ 50 µM
6,"C[C@H](N)C(=O)N[C@H](Cc1ccc(O)cc1)C(=O)N[C@@H](Cc1ccc(O)cc1)C(=O)N[C@@H](CCC(=O)O)C(=O)N[C@@H](CC(N)=O)C(=O)N[C@@H](CSSC[C@H](NC(=O)[C@H](CC(N)=O)NC(=O)[C@H](CCC(=O)O)NC(=O)[C@H](Cc1ccc(O)cc1)NC(=O)[C@@H](Cc1ccc(O)cc1)NC(=O)[C@H](C)N)C(=O)O)C(=O)O [SEQ ID No. 154, AyYENC AyYENC] (I: H-A[dY]YENC-OH / II: H-A[dY]YENC-OH; disulfide I:6-II:6)",≤ 50 µM
7,"NC(=O)C[C@@H]1NC(=O)CNC(=O)[C@H](Cc2ccccc2)NC(=O)CNC(=O)[C@@H](N)CSSC[C@@H](C(=O)O)NC(=O)[C@H](Cc2ccc(O)cc2)NC(=O)[C@H](CO)NC(=O)[C@H](Cc2c[nH]cn2)NC(=O)[C@H](CCC(=O)O)NC1=O [SEQ ID No. 31, CGFGNEHSYC] (H-CGFGNEHSYC-OH; disulfide 1-10)",≤ 50 µM
8,"Ac-EGYYGNYGAAA [SEQ ID No. 41, [Ac]EGYYGNYGAAA]",≤ 50 µM
9,"Ac-EGYYGNYGAYA [SEQ ID No. 42, [Ac]EGYYGNYGAYA]",≤ 50 µM
10,"Ac-EGYYGNAGVAA [SEQ ID No. 15, [Ac]EGYYGNAGVAA]",≤ 50 µM
11,"Ac-EGYYGAYGVYA [SEQ ID No. 9, [Ac]EGYYGAYGVYA]",≤ 50 µM
12,"C[C@H](N)C(=O)N[C@H](Cc1ccc(O)cc1)C(=O)N[C@@H](Cc1ccc(O)cc1)C(=O)N[C@@H](CCC(=O)O)C(=O)N[C@@H](C)C(=O)N[C@@H](CSSC[C@H](NC(=O)[C@H](C)NC(=O)[C@H](CCC(=O)O)NC(=O)[C@H](Cc1ccc(O)cc1)NC(=O)[C@@H](Cc1ccc(O)cc1)NC(=O)[C@H](C)N)C(=O)O)C(=O)O [SEQ ID No. 140, AyYEAC AyYEAC] (I: H-A[dY]YEAC-OH / II: H-A[dY]YEAC-OH; disulfide I:6-II:6)",≤ 50 µM
13,"C[C@H](N)C(=O)N[C@H](Cc1ccc(O)cc1)C(=O)N[C@@H](Cc1ccc(O)cc1)C(=O)N[C@@H](CCC(=O)O)C(=O)N[C@@H](C)C(=O)N[C@@H](CS)C(=O)O [SEQ ID No. 133, AyYEAC] (H-A[dY]YEAC-OH)",≤ 50 µM
14,"C[C@H](N)C(=O)N[C@@H](Cc1ccc(O)cc1)C(=O)N[C@@H](Cc1ccc(O)cc1)C(=O)N[C@@H](CCC(=O)O)C(=O)N[C@@H](CC(N)=O)C(=O)N[C@@H](CSSC[C@H](NC(=O)[C@H](CC(N)=O)NC(=O)[C@H](CCC(=O)O)NC(=O)[C@H](Cc1ccc(O)cc1)NC(=O)[C@H](Cc1ccc(O)cc1)NC(=O)[C@H](C)N)C(=O)O)C(=O)O [SEQ ID No. 123, AYYENC AYYENC] (I: H-AYYENC-OH / II: H-AYYENC-OH; disulfide I:6-II:6)",≤ 50 µM
15,"Ac-YYGNYGVYA [SEQ ID No. 45, [Ac]YYGNYGVYA]",≤ 50 µM
16,"STLTMNPVSF [SEQ ID No. 40, STLTMNPVSF]",≤ 50 µM
17,"CC(C)[C@H]1NC(=O)CSC[C@@H](C(=O)O)NC(=O)[C@H](CC(N)=O)NC(=O)CNC(=O)[C@H](Cc2ccccc2)NC1=O [SEQ ID No. 96, [Ac]vFGNC] ({CH2CO}-[dV]FGNC-OH; thioether N-5)",≤ 50 µM
18,"C[C@H](N)C(=O)N[C@@H](Cc1ccc(O)cc1)C(=O)N[C@@H](Cc1ccc(O)cc1)C(=O)NCC(=O)N[C@@H](Cc1ccc(O)cc1)C(=O)N[C@@H](CC(N)=O)C(=O)N[C@@H](CSSC[C@H](NC(=O)[C@H](CC(N)=O)NC(=O)[C@H](Cc1ccc(O)cc1)NC(=O)CNC(=O)[C@H](Cc1ccc(O)cc1)NC(=O)[C@H](Cc1ccc(O)cc1)NC(=O)[C@H](C)N)C(=O)O)C(=O)O [SEQ ID No. 144, AYYGYNC AYYGYNC] (I: H-AYYGYNC-OH / II: H-AYYGYNC-OH; disulfide I:7-II:7)",≤ 50 µM
19,"Ac-EGYYGNYGVAA [SEQ ID No. 12, [Ac]EGYYGNYGVAA]",≤ 50 µM
20,"Ac-EGYYGNYGVY [SEQ ID No. 22, [Ac]EGYYGNYGVY]",≤ 50 µM
21,"NC(=O)C[C@@H]1NC(=O)[C@H](Cc2ccc(O)cc2)NC(=O)CNC(=O)[C@H](Cc2ccc(O)cc2)NC(=O)[C@H](Cc2ccc(O)cc2)NC(=O)CSC[C@@H](C(=O)O)NC1=O [SEQ ID No. 62, [Ac]YYGYNC] ({CH2CO}-YYGYNC-OH; thioether N-6)",≤ 50 µM
22,"CC(C)C[C@H]1NC(=O)CSC[C@@H](C(=O)O)NC(=O)[C@H](CC(N)=O)NC(=O)CNC(=O)[C@H](Cc2ccccc2)NC1=O [SEQ ID No. 94, [Ac]lFGNC] ({CH2CO}-[dL]FGNC-OH; thioether N-5)",≤ 50 µM
23,"C[C@H](N)C(=O)N[C@H](Cc1ccc(O)cc1)C(=O)N[C@@H](Cc1ccc(O)cc1)C(=O)NCC(=O)N[C@@H](C)C(=O)N[C@@H](CSSC[C@H](NC(=O)[C@H](C)NC(=O)CNC(=O)[C@H](Cc1ccc(O)cc1)NC(=O)[C@@H](Cc1ccc(O)cc1)NC(=O)[C@H](C)N)C(=O)O)C(=O)O [SEQ ID No. 150, AyYGAC AyYGAC] (I: H-A[dY]YGAC-OH / II: H-A[dY]YGAC-OH; disulfide I:6-II:6)",≤ 50 µM
24,"SYYENC [SEQ ID No. 124, SYYENC]",≤ 50 µM
25,"C[C@H](N)C(=O)N[C@@H](Cc1ccc(O)cc1)C(=O)N[C@@H](Cc1ccccc1)C(=O)NCC(=O)N1CCC[C@H]1C(=O)N[C@@H](CSSC[C@H](NC(=O)[C@@H]1CCCN1C(=O)CNC(=O)[C@H](Cc1ccccc1)NC(=O)[C@H](Cc1ccc(O)cc1)NC(=O)[C@H](C)N)C(=O)O)C(=O)O [SEQ ID No. 71, AYFGPC AYFGPC] (I: H-AYFGPC-OH / II: H-AYFGPC-OH; disulfide I:6-II:6)",≤ 50 µM
26,"EGYYGNYGVY [SEQ ID No. 17, EGYYGNYGVY]",≤ 50 µM
27,"Ac-EGYYGNYGGYA [SEQ ID No. 43, [Ac]EGYYGNYGGYA]",≤ 50 µM
28,"NC(=O)CC[C@@H]1NC(=O)CNC(=O)[C@H](Cc2ccc(O)cc2)NC(=O)[C@H](Cc2ccc(O)cc2)NC(=O)CSC[C@@H](C(=O)O)NC1=O [SEQ ID No. 52, [Ac]YYGQC] ({CH2CO}-YYGQC-OH; thioether N-5)",≤ 50 µM

# Same assay, conditions: per Example 6: inhibition of Jurkat interaction with sVCAM-1-IgG, FACS, Mn+2 and 15/7 present; read-out: IC50
row,IC50,Compound
1,≤ 50 µM,"Ac-EGYYGNYGVYA [SEQ ID No. 4, [Ac]EGYYGNYGVYA]"
2,≤ 50 µM,"CC[C@H](C)[C@@H]1NC(=O)[C@H](CCC(N)=O)NC(=O)[C@H]([C@@H](C)O)NC(=O)[C@H](CCCNC(=N)N)NC(=O)[C@@H](N)CSSC[C@@H](C(=O)O)NC(=O)[C@H](CO)NC(=O)[C@H](CC(=O)O)NC1=O [SEQ ID No. 35, CRTQIDSC] (H-CRTQIDSC-OH; disulfide 1-8)"
